Like-named read-outs stand apart in the source and are kept apart here. One block for each molecule: values may come before it.
Experiments:
[1] = target: T1, TLR7 (Homo sapiens, UniProt Q9NYK1); assay: In vitro human TLR7 binding reporter assay (HEK-Blue, NF-kB/AP1-inducible SEAP); assay type: cell-based; settings: activity range class, read-out: TLR7 Agonist EC50
T1 construct: human HEK-Blue cells co-expressing a TLR7 or TLR8 gene
T1 sequence (Q9NYK1 27-1049): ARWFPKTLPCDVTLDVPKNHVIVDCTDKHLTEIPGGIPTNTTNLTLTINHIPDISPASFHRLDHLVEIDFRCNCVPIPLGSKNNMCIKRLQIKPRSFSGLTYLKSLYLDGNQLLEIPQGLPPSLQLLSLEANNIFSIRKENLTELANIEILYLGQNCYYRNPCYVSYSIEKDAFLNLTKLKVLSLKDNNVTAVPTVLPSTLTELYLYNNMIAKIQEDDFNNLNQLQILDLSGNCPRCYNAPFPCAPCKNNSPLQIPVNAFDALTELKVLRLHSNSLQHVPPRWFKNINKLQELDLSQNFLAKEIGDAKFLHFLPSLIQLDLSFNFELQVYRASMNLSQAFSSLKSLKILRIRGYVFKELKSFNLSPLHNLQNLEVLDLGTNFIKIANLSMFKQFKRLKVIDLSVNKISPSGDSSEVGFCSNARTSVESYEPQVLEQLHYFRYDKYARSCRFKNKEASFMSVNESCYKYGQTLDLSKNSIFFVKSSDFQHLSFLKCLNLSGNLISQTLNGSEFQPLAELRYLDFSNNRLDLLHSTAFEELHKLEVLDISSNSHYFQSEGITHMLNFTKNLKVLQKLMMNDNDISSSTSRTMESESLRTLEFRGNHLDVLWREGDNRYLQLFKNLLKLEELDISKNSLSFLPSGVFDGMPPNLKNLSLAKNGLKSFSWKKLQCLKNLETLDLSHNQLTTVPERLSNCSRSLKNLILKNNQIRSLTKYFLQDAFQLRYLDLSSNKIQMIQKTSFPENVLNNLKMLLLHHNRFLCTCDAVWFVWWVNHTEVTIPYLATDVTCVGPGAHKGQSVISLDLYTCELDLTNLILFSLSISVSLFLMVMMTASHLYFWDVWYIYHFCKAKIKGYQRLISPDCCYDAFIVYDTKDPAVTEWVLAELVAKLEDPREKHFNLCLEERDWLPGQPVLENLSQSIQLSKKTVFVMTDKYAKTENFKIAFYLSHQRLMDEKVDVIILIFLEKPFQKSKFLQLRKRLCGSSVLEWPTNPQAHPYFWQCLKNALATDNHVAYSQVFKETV
Method: (§1) In Vitro Human TLR7 and TLR8 Binding Reporter Assays
(§2) Logarithmically-growing human HEK-Blue cells co-expressing a TLR7 or TLR8 gene and a NF-kB/AP1-inducible SEAP (secreted embryonic alkaline phosphatase; Invivogen, San Diego, CA) reporter gene are added to individual wells of a 384-well plate (15,000 cells per 20 μL per well) and maintained for 24 h at 37° C., 5% CO2. Test compounds or DMSO are distributed to separate wells the next day using acoustic liquid handling technology (100 nL per well) and cells are subsequently incubated for 18 h at 37° C., 5% CO2. Cellular SEAP production is measured using an Envision plate reader instrument thirty minutes after adding freshly-made Quanti-Blue reagent (prepared by following manufacturer instructions; Invivogen, San Diego, CA) to the HEK-Blue TLR Nf-kB-SEAP cell reactions. All EC50 values (half-maximal effective concentration) are determined using proprietary data analysis software. Normalized EC50 value=absolute value determined by setting 100% Ymax using a reference standard RLU (relative light unit) values from cells treated with 50 μM of the reference standard.

[2] = system: THP-1 cells; assay: Measurement of IL-1β production, hTRF protocol (second alternative procedure), THP-1 cells; assay type: cell-based, human; settings: Homo sapiens
Method: Measurement of IL-1β Production—hTRF Protocol (Second Alternative Procedure)
Serial dilutions of compounds in DMSO were added to low volume 384 well plates at 100 nl/well using an ECHO 550 acoustic dispenser (Labcyte) to achieve final starting concentration of 10 μM in assay.
THP-1 cells in RPMI (Gibco, 11875) media with 10% FBS at a density of 1×10^6 cell/ml in a T175 flask were treated with a final concentration of phorbol 12-myristate 13-acetate (PMA) (Sigma, P1585) of 50 ng/ml overnight at 37° C. at 5% CO2 for differentiation. Cells were harvested the next day after rinsing well with dPBS using 0.5% trypsin. A cell solution was prepared of 1×10^6 cells/ml for 50,000 cells in 50 μl/well in RPMI media with 2% FBS. Cells were plated using a multichannel pipette onto the compound dilutions in Greiner, 384 well, black clear bottom tissue culture treated plates (781090). The plates were incubated in 37° C. incubator at 5% CO2 for 2 hours.
After the 2 hour incubation, the cell plates were spun in the centrifuge for 5 minutes at 1200 rpm. Using the Felix (CyBio), 8 μl of the supernatant was transferred to 384 well, low volume, white proxy plates. (Perkin Elmer, 6008230). A human IL1beta hTRF kit was used to analyze the supernatant (CISBIO, 62HIL1BPEG). The kit instructions were followed for preparing the IL1Beta standard curve and then the antibodies from the kit were diluted 1:40 rather than 1:20 as kit instructed. Once combined, the antibodies were added across the plates, 5 μl/well. The plates were sealed and incubated at 4° C. overnight. The plates were then read on the Perkin Elmer EnVision at 665/615 nm using the hTRF laser.

[3] = target: T2, TLR8 (Homo sapiens, UniProt Q9NR97); assay: In vitro human TLR8 binding reporter assay (HEK-Blue, NF-kB/AP1-inducible SEAP); assay type: cell-based; settings: activity range class, read-out: TLR8 Agonist EC50
T2 construct: human HEK-Blue cells co-expressing a TLR7 or TLR8 gene
T2 sequence (Q9NR97 27-1041): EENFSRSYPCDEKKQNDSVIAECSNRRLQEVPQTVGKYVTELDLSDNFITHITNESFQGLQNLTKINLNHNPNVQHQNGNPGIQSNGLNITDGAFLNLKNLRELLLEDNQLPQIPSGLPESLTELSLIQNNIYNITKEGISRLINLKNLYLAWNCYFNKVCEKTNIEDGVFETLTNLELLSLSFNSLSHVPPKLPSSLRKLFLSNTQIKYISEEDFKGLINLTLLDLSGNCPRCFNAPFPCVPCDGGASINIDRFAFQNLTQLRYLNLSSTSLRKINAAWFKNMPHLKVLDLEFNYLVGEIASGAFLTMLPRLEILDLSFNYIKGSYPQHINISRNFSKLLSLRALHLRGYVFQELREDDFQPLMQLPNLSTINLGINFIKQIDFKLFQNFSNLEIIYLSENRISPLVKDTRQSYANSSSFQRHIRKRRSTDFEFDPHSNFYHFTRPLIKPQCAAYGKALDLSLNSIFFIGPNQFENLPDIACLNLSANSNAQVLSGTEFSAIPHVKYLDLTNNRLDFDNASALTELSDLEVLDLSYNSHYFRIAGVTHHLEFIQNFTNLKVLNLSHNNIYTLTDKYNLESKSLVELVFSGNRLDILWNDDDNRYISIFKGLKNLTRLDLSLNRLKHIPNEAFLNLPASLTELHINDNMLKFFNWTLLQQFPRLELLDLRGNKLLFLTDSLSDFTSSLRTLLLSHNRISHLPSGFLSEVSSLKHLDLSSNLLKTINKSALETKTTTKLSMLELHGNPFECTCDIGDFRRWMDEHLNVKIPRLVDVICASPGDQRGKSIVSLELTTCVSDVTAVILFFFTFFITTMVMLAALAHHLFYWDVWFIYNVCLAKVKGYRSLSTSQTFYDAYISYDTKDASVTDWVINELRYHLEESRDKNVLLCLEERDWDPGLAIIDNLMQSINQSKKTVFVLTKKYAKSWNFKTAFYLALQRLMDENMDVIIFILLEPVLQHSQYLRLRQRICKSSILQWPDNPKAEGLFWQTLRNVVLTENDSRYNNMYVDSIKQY
Method: as §1, §2

[4] = THP-1, IL-1β production, human, read-out: NLRP3 hILIB EC50
[5] = THP-1, read-out: NLRP3 hILIB EC50

Compound: Nc1nc2cc(-c3cc[nH]n3)ccc2c2cn(CCN3CCOCC3)nc12 [Example 20, 2-[2-(morpholin-4-yl)ethyl]-7-(1H-pyrazol-3-yl)-2H-pyrazolo[3,4-c]quinolin-4-amine]
EC50 [1]: 20 to 100 µM
EC50 [2, 5]: 1.08 µM
EC50 [3]: > 100 µM

Compound: Nc1nc2cc(-c3cc[nH]n3)ccc2c2cn(CCC(=O)Nc3ccccc3)nc12 [Example 23]
EC50 [1]: > 100 µM
EC50 [2, 4]: 1.39 µM
EC50 [3]: > 100 µM

Compound: CCNC(=O)Cn1cc2c(n1)c(N)nc1cc(-c3cc[nH]n3)ccc12 [Example 24]
EC50 [1]: > 100 µM
EC50 [2, 4]: 2.9 µM
EC50 [3]: > 100 µM

Compound: Nc1nc2cc(-c3cc[nH]n3)ccc2c2cn(Cc3ccccn3)nc12 [Example 25]
EC50 [1]: > 100 µM
EC50 [2, 4]: 0.26 µM
EC50 [3]: > 100 µM

Compound: Nc1nc2cc(-c3cc[nH]n3)ccc2c2cn(CCCc3cccnc3)nc12 [Example 26]
EC50 [1]: > 100 µM
EC50 [2, 4]: 0.98 µM
EC50 [3]: > 100 µM

Compound: Nc1nc2cc(-c3cc[nH]n3)ccc2c2cn(CCCN3CCOCC3)nc12 [Example 27]
EC50 [1]: > 100 µM
EC50 [2, 4]: 0.43 µM
EC50 [3]: > 100 µM

Compound: Nc1nc2cc(-c3cc[nH]n3)ccc2c2cn(CC(=O)Nc3ccccn3)nc12 [Example 28]
EC50 [1]: > 100 µM
EC50 [2, 4]: 1.31 µM
EC50 [3]: > 100 µM

Compound: CCN(CCn1cc2c(n1)c(N)nc1cc(-c3cc[nH]n3)ccc12)C(C)=O [Example 29, N-[2-[4-amino-7-(1H-pyrazol-3-yl)-2H-pyrazolo[3,4-c]quinolin-2-yl]ethyl]-N-ethylacetamide]
EC50 [1]: > 100 µM
EC50 [2, 5]: 6.01 µM
EC50 [3]: > 100 µM

Compound: Nc1nc2cc(-c3cc[nH]n3)ccc2c2cn(CCN3CC4COCC4C3)nc12 (stereo not drawn) [Example 30, 2-(2-{hexahydro-1H-furo[3,4-c]pyrrol-5-yl}ethyl)-7-(1H-pyrazol-3-yl)-2H-pyrazolo[3,4-c]quinolin-4-amine]
EC50 [1]: > 100 µM
EC50 [2, 4]: 0.77 µM
EC50 [3]: > 100 µM

Compound: CC(=O)NCCn1cc2c(n1)c(N)nc1cc(-c3cc[nH]n3)ccc12 [Example 33]
EC50 [1]: > 100 µM
EC50 [2, 4]: 11.8 µM
EC50 [3]: > 100 µM

Compound: Nc1nc2cc(-c3cc[nH]n3)ccc2c2cn(CCNC(=O)CO)nc12 [Example 35]
EC50 [1]: 20 to 100 µM
EC50 [2, 4]: 20.7 µM
EC50 [3]: > 100 µM

Other lines, results leading:

EC50 [1]: 20 to 100 µM
EC50 [2, 4]: 1 µM
EC50 [3]: 1 to 20 µM
Compound: CCOCCn1cc2c(n1)c(N)nc1cc(-n3cccn3)ccc12 [Example 10, 2-(2-ethoxyethyl)-7-(1H-pyrazol-1-yl)-2H-pyrazolo[3,4-c]quinolin-4-amine]

EC50 [1]: 20 to 100 µM
EC50 [2, 4]: 2.09 µM
EC50 [3]: > 100 µM
Compound: Nc1nc2cc(-n3cccn3)ccc2c2cn(CCN3CCCC3=O)nc12 [Example 11]

EC50 [1]: 20 to 100 µM
EC50 [2, 4]: 1.52 µM
EC50 [3]: 20 to 100 µM
Compound: Cc1cc(C)n(CCn2cc3c(n2)c(N)nc2cc(-n4cccn4)ccc23)n1 [Example 12]

EC50 [1]: 20 to 100 µM
EC50 [2, 4]: 1.78 µM
EC50 [3]: > 100 µM
Compound: Nc1nc2cc(-n3cccn3)ccc2c2cn(CCN3CCOCC3)nc12 [Example 13]

EC50 [1]: 20 to 100 µM
EC50 [2, 4]: 1.68 µM
EC50 [3]: 20 to 100 µM
Compound: Nc1nc2cc(-n3cccn3)ccc2c2cn(Cc3ccccn3)nc12 [Example 14]

EC50 [1]: 20 to 100 µM
EC50 [2, 4]: 1.81 µM
EC50 [3]: > 100 µM
Compound: COCCOCCn1cc2c(n1)c(N)nc1cc(-n3cccn3)ccc12 [Example 15]

EC50 [1]: 20 to 100 µM
EC50 [2, 4]: 11.3 µM
EC50 [3]: > 100 µM
Compound: Nc1nc2cc(-n3cccn3)ccc2c2cn(C[C@H]3CCC(=O)N3)nc12 [Example 16]

EC50 [1]: 20 to 100 µM
EC50 [2, 4]: 2.2 µM
EC50 [3]: > 100 µM
Compound: Nc1nc2cc(-n3cccn3)ccc2c2cn(CC3CCCO3)nc12 (stereo not drawn) [Example 17]

EC50 [1]: 20 to 100 µM
EC50 [2, 4]: 1.13 µM
EC50 [3]: > 100 µM
Compound: Nc1nc2cc(-n3cccn3)ccc2c2cn(CC3CCCCO3)nc12 (stereo not drawn) [Example 18]

EC50 [1]: 20 to 100 µM
EC50 [2, 4]: 3.88 µM
EC50 [3]: 20 to 100 µM
Compound: CCNC(=O)Cn1cc2c(n1)c(N)nc1cc(-n3cccn3)ccc12 [Example 19]

EC50 [1]: 20 to 100 µM
EC50 [2, 4]: 2.08 µM
EC50 [3]: > 100 µM
Compound: CN(C)CCn1cc2c(n1)c(N)nc1cc(-c3cc[nH]n3)ccc12 [Example 21]

EC50 [1]: 20 to 100 µM
EC50 [2, 4]: 0.63 µM
EC50 [3]: > 100 µM
Compound: CN(C)CCCn1cc2c(n1)c(N)nc1cc(-c3cc[nH]n3)ccc12 [Example 22]

EC50 [1]: 20 to 100 µM
EC50 [2, 4]: 0.15 µM
EC50 [3]: 1 to 20 µM
Compound: Nc1nc2cc(-c3cc[nH]n3)ccc2c2cn(CCNC(=O)c3ccc(F)cn3)nc12 [Example 31, N-{2-[4-amino-7-(1H-pyrazol-3-yl)-2H-pyrazolo[3,4-c]quinolin-2-yl]ethyl}-5-fluoropyridine-2-carboxamide]

EC50 [1]: 1 to 20 µM
EC50 [2, 4]: 14.7 µM
EC50 [3]: > 100 µM
Compound: COc1ccc(CC(=O)NCCn2cc3c(n2)c(N)nc2cc(-c4cc[nH]n4)ccc23)cc1 [Example 32]

EC50 [1]: 20 to 100 µM
EC50 [2, 4]: 8.85 µM
EC50 [3]: > 100 µM
Compound: CC(C)C(=O)NCCn1cc2c(n1)c(N)nc1cc(-c3cc[nH]n3)ccc12 [Example 34]

From patent US12037344B2, “NLRP3 modulators” (INNATE TUMOR IMMUNITY, INC., priority 2018, dated 2024)
